From paper PMC5312321, “A general strategy to optimize immunogenicity of HLA-B*0702 restricted cryptic peptides from tumor associated antigens: Design of universal neo-antigen like tumor vaccines for HLA-B*0702 positive patients” (Oncotarget, 2016) come the findings set out here.

For experiment [1], the system named is CD8+ T cells from healthy donors. Put plainly: In vitro induction of specific CTLs from PBMC of healthy HLA-B*0702 donors (IFNγ intracellular staining or ELISPOT). In kind it is cell-based, human. The protocol:
CD8+ T cells from healthy donors were in vitro stimulated with autologous dendritic cells loaded with each optimized cryptic peptide. After four stimulations, proliferating cells were tested for the presence of IFNγ producing CTLs upon stimulation with T2-B7 cells loaded with optimized or native peptides either by intracellular IFNγ staining or by IFNγ ELISPOT assay.
PBMC were collected by leukapheresis from healthy HLA-A*B702 volunteers. Dendritic cells (DC) were produced from adherent cells cultured with 500 IU/ml GM-CSF and 500 IU/ml IL-4, in complete synthetic medium (AIMV) for seven days. On day 7, DCs were pulsed with 10 μM of peptide during 2 hours and CD8^+ cells were purified by negative selection with CD8 Dynabeads Untouched Human CD8. CD8^+ cells (2 × 10^5) + CD8^− cells (6 × 10^4) were stimulated with 3 × 10^4 peptide-pulsed DC in AIMV medium supplemented with 1000 IU/ml IL-6 and 5 IU/ml IL-12 in round-bottomed 96-well plates.
From day 7, cultures were stimulated weekly with peptide-loaded DC in the presence of 20 IU/ml IL-2 and 10 ng/ml IL-7, 1 μg/ml anti-CD40 and 500 IU/ml IFNγ.
After the third stimulation, CD8 cells were maintained in AIMV supplemented with 20 IU/ml IL-2 during 7 days. Cultures were starved overnight with AIMV and then were tested in an intracellular IFNγ and an IFNγ ELISpot assay.
Stimulated T cells (10^5) from each pool were incubated with 2 × 10^5 T2 cells loaded with stimulating peptide in the presence of 20 μg/ml Brefeldin-A (Sigma, Oakville, Canada). Six hours later they were washed, stained with r-phycoerythrin-conjugated anti-CD8 antibody (Caltag Laboratories, Burlingame, CA, USA) in PBS for 25 min at 4°C, washed again, and fixed with 4% PFA. The cells were then permeabilized with PBS, 0.5% BSA, 0.2% saponin (Sigma, Oakville, Canada), and labelled with an allophycocyanin-conjugated anti-IFNγ mAb (PharMingen, Mississauga, Canada) for 25 min at 4°C before analysis with a FACSCalibur® flow cytometer.
Stimulated T cells were splited in four pools and IFNγ producing T cells was quantified in each pool by ELISpot using the Diaclone Kit Human IFNγ ELISpot (Besançon, France) according to manufacturer's recommendations. 250 000 cells were distributed per well and tested for the recognition of 10 μM of either the native or optimized peptide. Positive control was Concanavalin A and negative control was medium alone or an irrelevant peptide. All conditions were tested in sixplicates.

In experiment [2] the test system is HLA-B*0702 transgenic mice. Put plainly: Vaccination of HLA-B*0702 transgenic mice; specific CTLs detected by cytotoxicity or IFNγ ELISPOT. The class given is in vivo, mouse. The following applies: for immunogenicity in HLA-B*0702 transgenic mice (in words): specific CTL induction after vaccination, cytotoxicity (ratio 30/1) or IFNγ ELISpot; for Immunogenicity (number of responding mice/number of vaccinated mice): native peptides, 100 μg peptide in IFA s.c. with HBVcore128 helper epitope, twice at two weeks interval. The protocol:
The HLA-B7 H-2 class-I knockout mice were previously described.
Mice were injected subcutaneously with 100 μg of peptide emulsified in Incomplete Freund's Adjuvant (IFA) in the presence of 150 μg of the I-A^b restricted HBVcore128 T helper epitope ([…]) twice at two weeks interval.
A particular protocol was applied for MAGE-A 274L9, with two injections of this peptide at two weeks interval and 15 days later one injection with each one of the native peptide.
On day 6 of culture the bulk responder populations were tested for specific cytotoxicity. […] Percentage of specific lysis was determined as: % Lysis = (Experimental Release-Spontaneous Release) / (Maximal Release-Spontaneous Release) × 100. Spontaneous release is obtained using medium only, maximum release with HCl 0.1 M.
Seven days after the last vaccination, spleens were removed and T cells were isolated by Ficoll centrifugation and tested ex vivo for the recognition of 10 μM of either the native or optimized peptide. IFNγ producing T cells were quantified by ELISpot using the Diaclone Kit Murine IFNγ ELISpot (Besançon, France) according to manufacturer's recommendations. 250 000 spleen T cells were distributed per well and tested for the recognition of 10 μM of either the native or optimized peptide. Positive control was Concanavalin A and negative control was medium alone. All conditions were tested in sixplicates.

A further experiment has as its target T1, HLA-B*0702 (Homo sapiens, UniProt P01889).
T1 construct: expressed in transfected cells; host or cells: human T2-B7 cells (T2 transfected with HLA-B*0702)
Briefly: Measurement of peptide relative affinity to HLA-B*0702 (surface expression on T2-B7 cells). In kind it is cell-based. Conditions: for RA (Relative Affinity): 37°C 16 hours, peptide 100 μM to 0.1 μM, ME-1 mAb staining, RA = concentration inducing 20% of HLA-B*0702 expression / that of reference R10V, mean ± SD, at least three experiments, ≥ 10 = 10 or not measurable; for binding to / affinity for HLA-B*0702 (in words): relative to reference peptide R10V. The protocol:
The protocol used has been described previously. Briefly, T2-B7 cells were incubated at 37°C for 16 hours with peptides concentrations ranging from 100 μM to 0.1 μM (100 μM, 10 μM, 1 μM and 0.1μM), and then stained with ME-1 monoclonal antibody (mAb) to quantify the surface expression of HLA-B*0702. For each peptide concentration, the HLA-B*0702 specific staining was calculated as the percentage of staining obtained with 100 μM of the reference peptide CMV265–274 (R10V; […], SEQ ID NO: 9). The relative affinity (RA) was determined as: RA = (Concentration of each peptide that induces 20% of HLA-B*0702-expression/Concentration of the reference R10V peptide that induces 20% of HLA-B*0702 expression). In case of non-binders peptide, RA is not evaluable since the 20% of HLA-B*0702 expression is not reach even with the highest concentration of peptide.

Entries after “also recorded” stand apart in the source; their conditions may differ. Marks after values point to notes of the source that are not given here.

With “APKHSDCLA [HER2/neu246A1, optimized Her2/neu246 modified at position 1 by an alanine]”, in experiment [1] (CD8+ T cells from healthy donors, four stimulations with peptide loaded autologous DC), the “immunogenicity in vitro in human PBMC (in words)” value was “confirmed”. The “Immunogenicity against optimized peptide (number of positive culture/number of total cultures)” value in experiment [1] (human healthy donor PBMC stimulated with optimized peptide loaded DC, T2-B7 cells loaded with optimized peptide) was 2/4. In addition, the “Immunogenicity against native peptide (number of positive culture/number of total cultures)” value in experiment [1] (human healthy donor PBMC stimulated with optimized peptide, T2-B7 cells loaded with corresponding native peptide) was 1/4. For the same sequence, in experiment [2] (HLA-B*0702 transgenic mice, target cells loaded with native peptide), the “cross recognition of the native peptide by CTLs induced by the optimized peptide in mice (in words)” value is on record as “able to recognize target cells loaded with their corresponding native peptide”. In addition, the “Immunogenicity against optimized peptide (responding mice/vaccinated mice)” value in experiment [2] (mice vaccinated twice with the optimized peptide, cytotoxicity or IFNγ ELISPOT against target cells loaded with the optimized peptide) is listed as 8/12. Also, the “Immunogenicity against native peptide (responding mice/vaccinated mice)” value in experiment [2] (mice vaccinated twice with the optimized peptide, target cells loaded with the corresponding native peptide) is listed as 5/12. Moreover, in experiment [2], the “immunogenicity in HLA-B*0702 transgenic mice (in words)” value is given as “immunogenic”.
With “SPKANKEIL [Her2/neu760, Her2/neu derived native peptide]”, in experiment [2], the “Immunogenicity (number of responding mice/number of vaccinated mice)” value is listed as 4/9 and the “immunogenicity in HLA-B*0702 transgenic mice (in words)” value is listed as “immunogenic”.
For “SPRLQLSND [CEA188, CEA derived native peptide]”, in experiment [2], the “Immunogenicity (number of responding mice/number of vaccinated mice)” value was 0/3 and the “immunogenicity in HLA-B*0702 transgenic mice (in words)” value is given as “non immunogenic”.
Turning to “EPFTKAEML [MAGE-A2_121, MAGE-A derived native cryptic peptide]”, at HLA-B*0702, the “RA (Relative Affinity)” value was at least 10 and the “binding to / affinity for HLA-B*0702 (in words)” value (“binding to / affinity” for short) was “low affinity”.
The corresponding values for “APVTKAEML [MAGE-A1_121 A1, MAGE-A1_121 with alanine at position 1]” are at least 10 and “fail to bind to HLA-B*0702 with high affinity”.
As to “DPRRLVQLL [TERT444, TERT derived native cryptic peptide]”, on HLA-B*0702, the “RA (Relative Affinity)” value was at least 10 and the “binding to / affinity” value is recorded as “low affinity”. The “immunogenicity in HLA-B*0702 transgenic mice (in words)” value in experiment [2] was “only the high affinity TERT4 was immunogenic; also recorded: non-immunogenic”.
As to “GPKHSDCLA [Her2/neu246, Her2/neu derived native peptide]”, in experiment [2], the “Immunogenicity (number of responding mice/number of vaccinated mice)” value is recorded as 0/9 and the “immunogenicity in HLA-B*0702 transgenic mice (in words)” value was “non immunogenic”.
In the case of “EPITKAEIL [MAGE-A4_121, MAGE-A derived native cryptic peptide]”, at HLA-B*0702, the “RA (Relative Affinity)” value is given as at least 10 and the “binding to / affinity” value was “low affinity”.
Consider “GPRALVETS [MAGE-A3_274, native peptide shared by MAGE-A3 and MAGE-A12]”, for which, in experiment [2], the “Immunogenicity (number of responding mice/number of vaccinated mice)” value is 2/3* and the “immunogenicity in HLA-B*0702 transgenic mice (in words)” value was “very weak immunogenicity; also recorded: very weakly immunogenic”.
The corresponding values for “GPRALAETS [MAGE-A1_267, native peptide shared by MAGE-A1 and MAGE-A4]” are 0/3 and “non immunogenic”.
Take “APRCRAVRSL [TERT4, TERT derived peptide with complete consensus motif A1P2R3L9, control, dominant peptide]”: the “RA (Relative Affinity)” value at HLA-B*0702 (SD) is on record as 0.74 ± 0.12. The “binding to / affinity” value on HLA-B*0702 is listed as “strongly bind to HLA-B*0702; also recorded: strong affinity”. Moreover, the “immunogenicity in HLA-B*0702 transgenic mice (in words)” value in experiment [2] is recorded as “immunogenic”.
For the sequence “YPVTNAVITV [Hsp70_137, Hsp70 derived native cryptic peptide]”, at HLA-B*0702, the “RA (Relative Affinity)” value is reported as at least 10 and the “binding to / affinity” value is given as “low affinity”. Also, the “immunogenicity in HLA-B*0702 transgenic mice (in words)” value in experiment [2] is “only the high affinity TERT4 was immunogenic”.
Regarding “APRSPLAPS [Her2/neu1069, Her2/neu derived native peptide]”, in experiment [2], the “Immunogenicity (number of responding mice/number of vaccinated mice)” value is 5/7 and the “immunogenicity in HLA-B*0702 transgenic mice (in words)” value is “immunogenic”.
With “GPRALIETS [MAGE-A2_274, native peptide shared by MAGE-A2 and MAGE-A6]”, in experiment [2], the “Immunogenicity (number of responding mice/number of vaccinated mice)” value was 0/3 and the “immunogenicity in HLA-B*0702 transgenic mice (in words)” value was “non immunogenic”.
Take “APRSLGLEL [Hsp70_397 R3L9, optimized Hsp70_397, arginine at position 3 and leucine at C-terminal position]”: the “RA (Relative Affinity)” value on HLA-B*0702 (SD) came to 1 ± 0.6. Further, the “binding to / affinity” value at HLA-B*0702 is “high HLA-B*0702 affinity”.
For the sequence “APLSLGLET [Hsp70_397, Hsp70 derived native cryptic peptide]”, on HLA-B*0702, the “RA (Relative Affinity)” value is listed as at least 10 and the “binding to / affinity” value is given as “low affinity”. In addition, the “immunogenicity in HLA-B*0702 transgenic mice (in words)” value in experiment [2] is “only the high affinity TERT4 was immunogenic”.
Turning to “APRGVPQIEV [HSP70_466, HSP70 derived native peptide]”, in experiment [2], the “Immunogenicity (number of responding mice/number of vaccinated mice)” value is listed as 3/3 and the “immunogenicity in HLA-B*0702 transgenic mice (in words)” value is “immunogenic”.
In the case of “EPVTKAEML [MAGE-A1_121, MAGE-A derived native cryptic peptide]”, on HLA-B*0702, the “RA (Relative Affinity)” value is recorded as at least 10 and the “binding to / affinity” value is “low affinity”.
For “SPREGPLPA [Her2/neu1151, Her2/neu derived native peptide]”, in experiment [2], the “Immunogenicity (number of responding mice/number of vaccinated mice)” value is listed as 1/3. Moreover, the “immunogenicity in HLA-B*0702 transgenic mice (in words)” value in experiment [2] (listed as HER2/neu1151) is given as “immunogenic”; in experiment [2] (listed as HER-2/neu1151), “very weakly immunogenic”.
Turning to “YPEEISSMVL [Hsp70_115, Hsp70 derived native cryptic peptide]”, on HLA-B*0702, the “RA (Relative Affinity)” value is at least 10 and the “binding to / affinity” value is “low affinity”. The “immunogenicity in HLA-B*0702 transgenic mice (in words)” value in experiment [2] was “only the high affinity TERT4 was immunogenic”.
On to “APRTKAEML [MAGE-A1_121 A1R3, optimized MAGE-A1_121, alanine at position 1 and arginine at position 3]”, for which, at HLA-B*0702 (SD), the “RA (Relative Affinity)” value is 2.36 ± 0.28. Besides, the “binding to / affinity” value at HLA-B*0702 is on record as “high HLA-B*0702 affinity”.
